Laboratory results: patent US20120108636A1, “Allosteric Enhancers of th A1 Adenosine Receptor” (King Pharmaceuticals Research and Development, Inc., priority 2008, published 2012)

How the values were obtained:
[1] = molecular target: T1, human A1 receptors expressed in CHO membranes (Homo sapiens, UniProt P30542); test: Allosteric enhancement of specific binding of [3H]CCPA to hCHO-A1 membranes; conditions: compound tested at 10 μM concentration
T1 construct: expressed in transfected cells; host or cells: CHO cells (hCHO-A1 clone), membrane preparation
T1 sequence (P30542 1-326): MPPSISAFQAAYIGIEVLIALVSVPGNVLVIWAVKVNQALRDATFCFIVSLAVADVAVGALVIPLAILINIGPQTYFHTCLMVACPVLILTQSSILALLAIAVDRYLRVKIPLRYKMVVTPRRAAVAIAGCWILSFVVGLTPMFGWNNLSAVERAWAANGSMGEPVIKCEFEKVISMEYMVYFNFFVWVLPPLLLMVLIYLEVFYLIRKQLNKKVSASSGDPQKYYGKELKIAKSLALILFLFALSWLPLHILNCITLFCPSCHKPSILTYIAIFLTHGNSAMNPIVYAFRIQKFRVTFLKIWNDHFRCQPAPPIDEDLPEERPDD
Description: (§1) Membrane Preparation from CHO Cells Transfected with the Human Recombinant A1, A2A and A3 Adenosine Receptors
The hCHO-A1, hCHO-A2A and hCHO-A3 cell clones are grown adherently and maintained in Dulbecco's modified Eagle's medium with nutrient mixture F12, containing 10% fetal calf serum, penicillin (100 U/mL), streptomycin (100 μg/mL), L-glutamine (2 mM), geneticine (G418) 0.2mg/mL at 37° C. in 5% CO2/95% air. 30 min at 37° C. (Klotz et al. Naunyn-Schmied. Arch Pharm. 1998, 357, 1-9). Cells are split two or three times weekly at a ratio of between 1:5 and 1:10. For membrane preparation the culture medium is removed. The cells are washed with PBS and scraped off T75 flasks in ice-cold hypotonic buffer (5 mM Tris HCl, 2 mM EDTA, pH 7.4). The cell suspension is homogenized with Polytron and the homogenate is spun for 10 min at 1,000×g. The supernatant is then centrifuged for 30 min at 100,000×g. […] The protein concentration is determined according to a Bio-Rad method (Bradford, 1976) with bovine albumin as a standard reference.
To determine the effect of the compounds of the present invention on the binding to A1, A2A and A3 receptors, membranes from hCHO-A1, hCHO-A2A, hCHO-A3 are incubated in a buffer solution in the absence and in the presence of the examined compounds. […] Bound and free radioactivity are separated by filtering the assay mixture through Whatman GF/B glass fibre filters using a Micro-mate 196 cell harvester (Packard Instrument Company). The filter bound radioactivity is counted on Top Count Microplate Scintillation Counter (efficacy 57%) with Micro-Scint 20. […]
Competition experiments are carried out in triplicate in a final volume of 250 μL in test tubes containing 1 nM [^3H]CCPA, 50 mM Tris-HCl, pH 7.4 and 100 μL of diluted membranes and at least six to eight different concentrations of the tested compounds in the range from 1 nM to 50 μM for 90 min at 25° C. […] Allosteric enhancement is measured as the action of different concentrations of the tested compounds to increase the specific binding of 1 nM [^3H]CCPA to hCHO-A1 membranes.

[2] = molecular target: T1, human A1 receptors expressed in CHO membranes; test: Saturation binding of [3H]CCPA to hCHO-A1; conditions: compound tested at 10 μM concentration
Description: as §1
The hCHO-A1, hCHO-A2A and hCHO-A3 cell clones are grown adherently and maintained in Dulbecco's modified Eagle's medium with nutrient mixture F12, containing 10% fetal calf serum, penicillin (100 U/mL), streptomycin (100 μg/mL), L-glutamine (2 mM), geneticine (G418) 0.2mg/mL at 37° C. in 5% CO2/95% air. 30 min at 37° C. (Klotz et al. Naunyn-Schmied. Arch Pharm. 1998, 357, 1-9). Cells are split two or three times weekly at a ratio of between 1:5 and 1:10. For membrane preparation the culture medium is removed. The cells are washed with PBS and scraped off T75 flasks in ice-cold hypotonic buffer (5 mM Tris HCl, 2 mM EDTA, pH 7.4). The cell suspension is homogenized with Polytron and the homogenate is spun for 10 min at 1,000×g. The supernatant is then centrifuged for 30 min at 100,000×g. The membrane pellet is resuspended in 50 mM Tris HCl buffer pH 7.4 for The A1 adenosine receptors, 50 mM Tris HCl buffer pH 7.4, 10 mM MgCl2 for A2A adenosine receptors, 50 mM Tris HCl buffer pH 7.4, 10 mM MgCl2, 1 mM EDTA for A3 adenosine receptors and incubated with 3 Ul/mL of adenosine deaminase for 30 min at 37° C. The protein concentration is determined according to a Bio-Rad method (Bradford, 1976) with bovine albumin as a standard reference.
To determine the effect of the compounds of the present invention on the binding to A1, A2A and A3 receptors, membranes from hCHO-A1, hCHO-A2A, hCHO-A3 are incubated in a buffer solution in the absence and in the presence of the examined compounds. Test agents are dissolved in DMSO and added to the assay from a 100-fold concentrated solution in DMSO. Control incubations also contain 1% DMSO. Bound and free radioactivity are separated by filtering the assay mixture through Whatman GF/B glass fibre filters using a Micro-mate 196 cell harvester (Packard Instrument Company). The filter bound radioactivity is counted on Top Count Microplate Scintillation Counter (efficacy 57%) with Micro-Scint 20.
Saturation Binding of [^3H]CCPA to hCHO-A1 […]

increase of the A1 specific binding of the agonist [3H]CCPA to human CHO-A1 membranes [1]	increase in the BMAX value of the agonist [3H]CCPA [2]	melting point [°C]	Structure (SMILES)
≤ 5.5 fold	~6.3 fold	–	CC(C)(C)CN(Cc1c(-c2ccccc2)sc(N)c1C(=O)c1ccc(Cl)cc1)CC(C)(C)C [Example 16-9, {2-Amino-4-[(dineopentylamino)methyl]-5-phenylthiophen-3-yl}(4-chlorophenyl)methanone]
up to 4.4 fold	about 3.5 fold	–	Nc1sc(-c2ccccc2)c(CN(C2CCCCC2)C2CCCCC2)c1C(=O)c1ccc(Cl)cc1 [Example 2, {2-Amino-4-[(dicyclohexylamino)methyl]-5-phenyithiophen-3-yl}(4-chlorophenyl)methanone]
≤ 4.2 fold	~4.6 fold	197 to 199	Nc1sc(-c2cccs2)c(CN(C2CCCCC2)C2CCCCC2)c1C(=O)c1ccc(Cl)cc1 [Example 30, {2-Amino-4-[(dicyclohexylamino)methyl]-5-(thiophen-2-yl)thiophen-3-yl}(4-chlorophenyl)methanone]
